ChEMBL document CHEMBL1212870, “Concise synthesis of 5,6-dihydrovaltrate leading to enhanced Rev-export inhibitory congener” (Bioorg Med Chem, 2010)

Assay: Inhibition of hemagglutininin-tagged HIV1 Rev protein nuclear export in human HeLa cells assessed as localization by indirect fluorescent antibody technique
Type: cell-based, Human immunodeficiency virus 1

Q: With CCCCOCC1=CO[C@@H](OC(=O)CC(C)C)[C@H]2[C@@H]1C[C@H](OC(=O)CC(C)C)[C@]21CO1 as the compound, how does the IC50 read?
A: The IC50 was 3300 nM.

Q: For CC(=O)OCC1=CO[C@@H](OC(C)=O)[C@H]2[C@@H]1C[C@H](OC(=O)CC(C)C)[C@]21CO1, which IC50 is on record?
A: The IC50 was 1000 nM.

Q: For CC(=O)OCC1=CO[C@@H](OC(=O)CC(C)C)[C@H]2C1=C[C@H](OC(=O)CC(C)C)[C@]21CO1 [VALTRATE], which IC50 is on record?
A: Its IC50 is 2500 nM.

Q: With CC(=O)OCC1=CO[C@@H](OC(=O)CC(C)C)[C@H]2[C@@H]1C[C@H](OC(C)=O)[C@]21CO1 as the compound, how does the IC50 read?
A: Its IC50 is 2600 nM.

Q: For CC(=O)OCC1=CO[C@@H](OC(=O)CC(C)C)[C@H]2[C@@H]1C[C@H](OC(=O)CC(C)C)[C@]21CO1, which IC50 is on record?
A: Its IC50 is 4400 nM.
